Laboratory results taken from PubChem BioAssay (NCI).
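Interpolation was linear, between the two tested concentrations surrounding the appropriate level; five concentrations were tested over 48 hours in 96-well plates. TGI: concentration producing complete growth inhibition.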

Tests used:
Experiment in all cases: NCI tumour cell line growth inhibition, 48 h
NCI-H460 lung = system: NCI-H460 lung
MALME-3M melanoma = system: MALME-3M melanoma
P388/ADR leukemia = system: P388/ADR leukemia
M19-MEL melanoma = system: M19-MEL melanoma
DMS 114 small cell lung = system: DMS 114 small cell lung
UACC-257 melanoma = system: UACC-257 melanoma
SN12K1 renal = system: SN12K1 renal
HCT-116 colon = system: HCT-116 colon
SK-MEL-2 melanoma = system: SK-MEL-2 melanoma
SW-620 colon = system: SW-620 colon
COLO 205 colon = system: COLO 205 colon
SN12C renal = system: SN12C renal
A549 NSCLC = system: A549 NSCLC
UACC-62 melanoma = system: UACC-62 melanoma
OVCAR-3 ovarian = system: OVCAR-3 ovarian
RXF 393 renal = system: RXF 393 renal
MCF7 breast = system: MCF7 breast
EKVX NSCLC = system: EKVX NSCLC
K-562 leukemia = system: K-562 leukemia
OVCAR-4 ovarian = system: OVCAR-4 ovarian
SF-295 CNS = system: SF-295 CNS
SF-539 CNS = system: SF-539 CNS
CCRF-CEM leukemia = system: CCRF-CEM leukemia
A498 renal = system: A498 renal
SNB-78 CNS = system: SNB-78 CNS
HOP-92 NSCLC = system: HOP-92 NSCLC
HL-60(TB) leukemia = system: HL-60(TB) leukemia
HCC-2998 colon = system: HCC-2998 colon
HOP-18 NSCLC = system: HOP-18 NSCLC
SK-MEL-5 melanoma = system: SK-MEL-5 melanoma
OVCAR-8 ovarian = system: OVCAR-8 ovarian
HT29 colon = system: HT29 colon
IGROV1 ovarian = system: IGROV1 ovarian
MOLT-4 leukemia = system: MOLT-4 leukemia
P388 leukemia = system: P388 leukemia
U251 CNS = system: U251 CNS
KM12 colon = system: KM12 colon
NCI-H23 lung = system: NCI-H23 lung
DLD-1 colon = system: DLD-1 colon
CAKI-1 renal = system: CAKI-1 renal
SNB-19 CNS = system: SNB-19 CNS
DMS 273 small cell lung = system: DMS 273 small cell lung
SK-MEL-28 melanoma = system: SK-MEL-28 melanoma
OVCAR-5 ovarian = system: OVCAR-5 ovarian
HCT-15 colon = system: HCT-15 colon
LOX IMVI melanoma = system: LOX IMVI melanoma
SNB-75 CNS = system: SNB-75 CNS
NCI-H226 lung = system: NCI-H226 lung
SK-OV-3 ovarian = system: SK-OV-3 ovarian
NCI/ADR-RES ovarian = system: NCI/ADR-RES ovarian
SF-268 CNS = system: SF-268 CNS
HOP-62 NSCLC = system: HOP-62 NSCLC
KM20L2 colon = system: KM20L2 colon
XF 498 CNS = system: XF 498 CNS
NCI-H522 lung = system: NCI-H522 lung
LXFL 529 NSCLC = system: LXFL 529 NSCLC
RXF-631 renal = system: RXF-631 renal
ACHN renal = system: ACHN renal
SR leukemia = system: SR leukemia
786-0 renal = system: 786-0 renal
RPMI-8226 leukemia = system: RPMI-8226 leukemia
UO-31 renal = system: UO-31 renal
TK-10 renal = system: TK-10 renal
M14 melanoma = system: M14 melanoma

CCOCC(=O)N(C)c1cccc2c3c(n(C)c12)CCCCC3
TGI (NCI-H460 lung): > 100 µM | TGI (MALME-3M melanoma): > 100 µM | TGI (P388/ADR leukemia): > 100 µM | TGI (M19-MEL melanoma): > 100 µM | TGI (DMS 114 small cell lung): > 100 µM | TGI (UACC-257 melanoma): > 100 µM | TGI (SN12K1 renal): > 100 µM | TGI (HCT-116 colon): > 100 µM | TGI (SK-MEL-2 melanoma): > 100 µM | TGI (SW-620 colon): > 100 µM | TGI (COLO 205 colon): > 100 µM | TGI (SN12C renal): > 100 µM | TGI (A549 NSCLC): > 100 µM | TGI (UACC-62 melanoma): > 100 µM | TGI (OVCAR-3 ovarian): > 100 µM | TGI (RXF 393 renal): > 100 µM | TGI (MCF7 breast): > 100 µM | TGI (EKVX NSCLC): > 100 µM | TGI (K-562 leukemia): > 100 µM | TGI (OVCAR-4 ovarian): > 100 µM | TGI (SF-295 CNS): > 100 µM | TGI (SF-539 CNS): > 100 µM | TGI (CCRF-CEM leukemia): > 100 µM | TGI (A498 renal): > 100 µM | TGI (SNB-78 CNS): > 100 µM | TGI (HOP-92 NSCLC): > 100 µM | TGI (HL-60(TB) leukemia): > 100 µM | TGI (HCC-2998 colon): > 100 µM | TGI (HOP-18 NSCLC): > 20.9 µM | TGI (SK-MEL-5 melanoma): > 100 µM | TGI (OVCAR-8 ovarian): > 100 µM | TGI (HT29 colon): > 100 µM | TGI (IGROV1 ovarian): > 100 µM | TGI (MOLT-4 leukemia): > 100 µM | TGI (P388 leukemia): > 100 µM | TGI (U251 CNS): > 100 µM | TGI (KM12 colon): > 100 µM | TGI (NCI-H23 lung): > 100 µM | TGI (DLD-1 colon): > 100 µM | TGI (CAKI-1 renal): > 100 µM | TGI (SNB-19 CNS): > 100 µM | TGI (DMS 273 small cell lung): > 31.6 µM | TGI (SK-MEL-28 melanoma): > 100 µM | TGI (OVCAR-5 ovarian): > 100 µM | TGI (HCT-15 colon): > 100 µM | TGI (LOX IMVI melanoma): > 100 µM | TGI (SNB-75 CNS): > 100 µM | TGI (NCI-H226 lung): > 100 µM | TGI (SK-OV-3 ovarian): > 100 µM | TGI (NCI/ADR-RES ovarian): > 100 µM | TGI (SF-268 CNS): > 100 µM | TGI (HOP-62 NSCLC): > 100 µM | TGI (KM20L2 colon): > 100 µM | TGI (XF 498 CNS): > 100 µM | TGI (NCI-H522 lung): > 100 µM

COc1cc(/C=C/c2ccc(Br)cc2)cc(OC)c1OC
TGI (NCI-H460 lung): 49.4 µM | TGI (MALME-3M melanoma): 76.2 µM | TGI (M19-MEL melanoma): > 71.5 µM | TGI (DMS 114 small cell lung): 52.8 µM | TGI (LXFL 529 NSCLC): > 100 µM | TGI (UACC-257 melanoma): > 95.5 µM | TGI (RXF-631 renal): > 75.4 µM | TGI (HCT-116 colon): 17.1 µM | TGI (SK-MEL-2 melanoma): 64.2 µM | TGI (SW-620 colon): > 100 µM | TGI (COLO 205 colon): 25.7 µM | TGI (SN12C renal): 71.8 µM | TGI (A549 NSCLC): > 100 µM | TGI (UACC-62 melanoma): > 72.1 µM | TGI (OVCAR-3 ovarian): 26.4 µM | TGI (RXF 393 renal): 54.6 µM | TGI (EKVX NSCLC): > 61.3 µM | TGI (K-562 leukemia): > 37.8 µM | TGI (ACHN renal): > 100 µM | TGI (OVCAR-4 ovarian): 87.1 µM | TGI (SF-295 CNS): 40.2 µM | TGI (SF-539 CNS): 31.9 µM | TGI (SR leukemia): > 100 µM | TGI (CCRF-CEM leukemia): > 88 µM | TGI (A498 renal): > 56.6 µM | TGI (HOP-92 NSCLC): 72.3 µM | TGI (HL-60(TB) leukemia): 19 µM | TGI (HCC-2998 colon): 28.1 µM | TGI (HOP-18 NSCLC): > 74.6 µM | TGI (SK-MEL-5 melanoma): 20.4 µM | TGI (OVCAR-8 ovarian): 98.3 µM | TGI (HT29 colon): > 39.3 µM | TGI (IGROV1 ovarian): > 100 µM | TGI (MOLT-4 leukemia): 15.6 µM | TGI (U251 CNS): 30.7 µM | TGI (KM12 colon): 38 µM | TGI (NCI-H23 lung): > 81.2 µM | TGI (DLD-1 colon): > 100 µM | TGI (CAKI-1 renal): > 87 µM | TGI (SNB-19 CNS): > 100 µM | TGI (DMS 273 small cell lung): > 47.5 µM | TGI (786-0 renal): 52.9 µM | TGI (RPMI-8226 leukemia): 20.8 µM | TGI (UO-31 renal): 80.1 µM | TGI (SK-MEL-28 melanoma): 48 µM | TGI (OVCAR-5 ovarian): > 75.1 µM | TGI (HCT-15 colon): 61.1 µM | TGI (LOX IMVI melanoma): > 100 µM | TGI (SNB-75 CNS): 39.5 µM | TGI (NCI-H226 lung): 56.6 µM | TGI (SK-OV-3 ovarian): > 89.9 µM | TGI (TK-10 renal): > 100 µM | TGI (SF-268 CNS): 31.2 µM | TGI (HOP-62 NSCLC): 49.8 µM | TGI (M14 melanoma): 87.6 µM | TGI (KM20L2 colon): 29.8 µM | TGI (XF 498 CNS): 65.9 µM | TGI (NCI-H522 lung): 46.1 µM

COc1ccccc1-n1c(NN)nc2ccc(Br)cc2c1=O
TGI (NCI-H460 lung): > 100 µM | TGI (MALME-3M melanoma): > 100 µM | TGI (M19-MEL melanoma): > 100 µM | TGI (DMS 114 small cell lung): > 100 µM | TGI (LXFL 529 NSCLC): > 100 µM | TGI (UACC-257 melanoma): 72.1 µM | TGI (RXF-631 renal): > 100 µM | TGI (SK-MEL-2 melanoma): > 100 µM | TGI (SW-620 colon): > 100 µM | TGI (COLO 205 colon): > 100 µM | TGI (SN12C renal): > 100 µM | TGI (A549 NSCLC): > 100 µM | TGI (UACC-62 melanoma): > 100 µM | TGI (OVCAR-3 ovarian): > 100 µM | TGI (RXF 393 renal): > 100 µM | TGI (EKVX NSCLC): > 100 µM | TGI (K-562 leukemia): > 100 µM | TGI (ACHN renal): > 100 µM | TGI (OVCAR-4 ovarian): > 100 µM | TGI (SF-295 CNS): > 100 µM | TGI (SF-539 CNS): 84.5 µM | TGI (SR leukemia): > 100 µM | TGI (CCRF-CEM leukemia): > 100 µM | TGI (SNB-78 CNS): > 100 µM | TGI (HL-60(TB) leukemia): 53.1 µM | TGI (HCC-2998 colon): > 100 µM | TGI (HOP-18 NSCLC): 61.5 µM | TGI (SK-MEL-5 melanoma): 43 µM | TGI (OVCAR-8 ovarian): > 100 µM | TGI (HT29 colon): > 100 µM | TGI (IGROV1 ovarian): > 100 µM | TGI (MOLT-4 leukemia): > 100 µM | TGI (U251 CNS): > 100 µM | TGI (KM12 colon): > 100 µM | TGI (NCI-H23 lung): > 100 µM | TGI (DLD-1 colon): > 100 µM | TGI (CAKI-1 renal): > 100 µM | TGI (SNB-19 CNS): > 100 µM | TGI (DMS 273 small cell lung): > 100 µM | TGI (786-0 renal): > 100 µM | TGI (RPMI-8226 leukemia): > 100 µM | TGI (UO-31 renal): 93.1 µM | TGI (SK-MEL-28 melanoma): > 100 µM | TGI (OVCAR-5 ovarian): 68.8 µM | TGI (HCT-15 colon): > 100 µM | TGI (LOX IMVI melanoma): > 100 µM | TGI (SNB-75 CNS): > 100 µM | TGI (NCI-H226 lung): > 100 µM | TGI (SK-OV-3 ovarian): 99.3 µM | TGI (TK-10 renal): 79.5 µM | TGI (SF-268 CNS): > 100 µM | TGI (HOP-62 NSCLC): > 100 µM | TGI (M14 melanoma): > 100 µM | TGI (KM20L2 colon): > 100 µM | TGI (XF 498 CNS): 92.1 µM | TGI (NCI-H522 lung): 63.2 µM
